From patent US20240172756A1, “ORGANOANTIMONY(V) C[…] AND METHODS OF PRODUCTION AND USE THEREOF” (priority 2021, published 2024)
In brackets after ≈: the same amount, converted by molar mass.

Experiments:
Cryptococcus neoformans [1] = conditions: reference value; organism not given; cited from earlier work
Pseudomonas aeruginosa = assay: MIC in liquid culture, P. aeruginosa; type: cell-based
Experimental: (§1) To determine the antimicrobial potential of the two generations (G1—based on SbPh4-core, and G2—based on SbMe3-core) of newly synthesized Sb(V) cyanoximates, several representative compounds were first selected and their antimicrobial properties tested by using disk diffusion assays, The minimal inhibitory concentrations (MIC) of selected compounds were also determined in liquid cultures. Three bacterial and two fungal pathogens were used as target microorganisms. Bacterial pathogens included Gram-negative Pseudomonas aeruginosa and Gram-positive Staphylococcus aureus, representing the ESKAPE group of human pathogens known for their high virulence and antibiotic resistance.
(§2) MIC of the 3rd generation compounds, as well as complete MIC measurements for the 2nd generation Sb(V) compounds, are determined. A dilution assay in a 96-well-plate format, the gold standard for measuring MICS recommended by the Clinical Laboratory Standards Institute (CLSI), is utilized. Prior to plate inoculation, bacterial cultures of P. aeruginosa PAO1, S. aureus NRS70, E. foecium CC17, and E. coli S17 are grown in Mueller Hinton Broth (MHB) to middle log phase as determined by the individual growth curves and diluted to obtain absorbance at 600 nm of 0.1. These normalized cultures are diluted 1:100 using MHB and inoculated into the fresh medium with serially diluted Sb(V) compounds in 96-well plates. The plates are incubated for 24 h at 37° C. For fungal pathogens, cultures of Cryptococcus neoformans strain H99 and Candida albicans strain SC5314 are grown to stationary phase in YPD medium for 18 h at 30° C. Following incubation, fungal cells are centrifuged, washed three times with PBS, and then counted with trypan blue exclusion. Each compound is screened using a microdilution assay with 0.5×10^3 fungal cells in RPMI-MOPS medium at 35° C. for 48 h. Following incubations for bacterial or fungal pathogens, the OD600 is measured using a Biotek Synergy HT microtiter plate reader ([…].). The MIC is defined as the lowest concentration that inhibits growth. An aliquot from the clear wells from the MIC assay is plated on agar to determine minimum bactericidal concentration (MBC) or minimum fungicidal concentration (MFC). Each experiment is based on at least three biological replicates and repeated for consistency. The MIC and MBC for each compound is compared to those obtained for clinically applied antibiotics/antifungals. For bacterial pathogens, the corresponding antibiotics, such as tobramycin (P. aeruginosa), trimethoprim (S. aureus), gentamicin (E. coli) and ampicillin (E. foecium), are used. For fungal pathogens, the data is compared to the antifungal drugs Amphotericin B and Caspofungin for C. neoformans and C. albicans, respectively, by using the CLSI method.
(§3) Two different types of antimicrobial studies were performed: 1) paper disk studies during growth on solid media; and 2) MIC determination during growth in liquid media. […] Antifungal disk assays concluded that Sb(Ph)4 (ECO) was effective against Cryptococcus neoformans and Candida albicans. […] For MIC assays, Sb(Ph)4 (MCO), the Sb(V) cyanoximate, was tested, along with the free cyanoximes H(MCO), H(ECO), and Na[H(ACO)2].
(§4) MIC assays: The MIC assay protocol utilized for determination of the effects of various organoantimony(V) cyanoximate compounds in various bacteria is shown in FIG. 16. Each solubilized in DMSO at 5 mg/ml, starting concentration is 100 μg/ml. Error bars represent standard error of the mean (if none, the values were identical in each experiment). Untested compounds have no bar. Bars reaching 100 μg/ml were not considered to have antifungal activity.

Escherichia coli = assay: MIC in liquid culture, E. coli; type: cell-based
Experimental: as §1, §2, §3, §4

Staphylococcus aureus = assay: MIC in liquid culture, S. aureus; type: cell-based
Experimental: as §1, §2, §3, §4

Cryptococcus neoformans [2] = assay: MIC assay, C. neoformans; type: cell-based; conditions: Table 1
Experimental: (§5) To determine the antifungal properties of the two groups of Sb(V) cyanoximaes, Cryptococcus neoformans and Candida albicans, both of which are deadly human pathogens, were tested.
as §2
(§6) Second, the compounds were dissolved in DMSO to […], and their minimal inhibitory concentration (MIC) was determined against C. neoformans and C. albicans. Starting concentration used was 100 μg/ml, and then diluted 1:2.
as §4

Candida albicans [3] = assay: MIC assay, C. albicans; type: cell-based; conditions: Table 1
Experimental: as §5, §2, §6, §4

Cryptococcus neoformans [4] = assay: Antifungal disk diffusion assay, C. neoformans; type: cell-based; conditions: solid compound on paper disk
Experimental: as §5
(§7) First, solid state powder compounds were deposited on paper disks and tested against two fungi: Cryptococcus neoformans and Candia albicans. Each experiment was conducted in triplicate with each compound at each concentration of deposited solid compound. The control was a blank paper (100% cotton disk).
(§8) Disk diffusion assays: No inhibition of Cryptococcus neoformans or Candida albicans for the following organoantimony(V) cyanoximate compounds at any concentration (S, ×2, ×4): H(ACO), H(ECO), H(MCO).

Candida albicans [5] = assay: Antifungal disk diffusion assay, C. albicans; type: cell-based; conditions: solid compound on paper disk
Experimental: as §5, §7, §8

[6] = test system: Staphylococcus aureus MRSA; assay: Broth dilution assay, S. aureus MRSA; type: cell-based; conditions: multi-drug resistant strain, FIG. 20
From the text: As shown in FIGS. 20-21, compounds containing Sb display higher bactericidal activity against Gram positive Staphylococcus aureus (FIG. 20) than Gram negative E. coli (FIG. 21). […] In addition, 25-40% reduction of growth was also observed for Sb(Ph4)Br, Sb(Ph4)ECO, Sb(Ph4)ACO, and Sb(Ph4)TCO against Gram negative E. coli (FIG. 21).

SMILES | MIC concentration (for reference) (Cryptococcus neoformans [1]) [µg/mL] | MIC, P. aeruginosa (Pseudomonas aeruginosa; Table 1) [µg/mL] | antimicrobial effect (Pseudomonas aeruginosa; strain PAO1, paper disk and MIC studies) | MIC, E. coli (Escherichia coli; Table 1) [µg/mL] | antimicrobial effect (Escherichia coli; strain S17, paper disk and MIC studies) | antimicrobial effect (Staphylococcus aureus; Methicillin-resistant strain NRS70, paper disk and MIC studies) | MIC, S. aureus (Staphylococcus aureus; Table 1) [µg/mL] | MIC, C. neoformans (Cryptococcus neoformans [2]) [µg/mL] | MIC, C. albicans (Candida albicans [3]) [µg/mL] | antifungal activity / zone of inhibition in disk assay (Cryptococcus neoformans [4]) | antifungal activity / zone of inhibition in disk assay (Candida albicans [5]) | bactericidal activity [6]
C[C@@H]1[C@H](O)[C@@H](C)/C=C/C=C/C=C/C=C/C=C/C=C/C=C/[C@H](O[C@@H]2O[C@H](C)[C@@H](O)[C@H](N)[C@@H]2O)C[C@@H]2O[C@](O)(C[C@@H](O)C[C@@H](O)[C@H](O)CC[C@@H](O)C[C@@H](O)CC(=O)O[C@H]1C)C[C@H](O)[C@H]2C(=O)O [Amphotericin B] | 0.5 (≈ 0.541 µM) |  |  |  |  |  |  |  |  |  |  | 
N#CC(=N[O][Sb]([c]1ccccc1)([c]1ccccc1)([c]1ccccc1)[c]1ccccc1)C(N)=S [SbPh4TCO] |  | >200 | essentially no antimicrobial activity | >200 | essentially no antimicrobial activity | significant effects | 100 | 25 | 100 | followed in antifungal activity against both strains | followed in antifungal activity against both strains | significant bactericidal activity
